Data: the supplement of paper PMC12420376

How the values were obtained:
KURAMOCHI = assay: drug sensitivity score (DSS2) on cancer cell count; higher = more sensitive; extreme values may be limits of the assay; details: 72 h
Outline: (§1)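 Screen quality was checked by Z', and a drug sensitivity score was derived in Breeze from logistic fits of the cancer cell counts. These counts were obtained by imaging at 10× (4 fields) after fixing and immunostaining for CK8/18 with Hoechst. Before that, ovarian cancer cells, alone or in 1:1 direct co-culture with lung or skin fibroblasts, had been treated for 72 h on 384-well plates acoustically pre-spotted with 528 approved and investigational compounds at 5 concentrations.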

OVCAR8 = assay: as above; details: 72 h
Outline: as §1

[1] = co-cultured fibroblast: BJHTERT
[2] = co-cultured fibroblast: none (monoculture)

| SMILES | drug sensitivity score (KURAMOCHI; [1]) [DSS] | drug sensitivity score (KURAMOCHI; co-cultured fibroblast: WI38) [DSS] | drug sensitivity score (KURAMOCHI; [2]) [DSS] | drug sensitivity score (OVCAR8; [1]) [DSS] | drug sensitivity score (OVCAR8; co-cultured fibroblast: WI38) [DSS] | drug sensitivity score (OVCAR8; [2]) [DSS] |
| --- | --- | --- | --- | --- | --- | --- |
| O=C(c1ccc(OCCN2CCCCC2)cc1)c1c(-c2ccc(O)cc2)sc2cc(O)ccc12 [Raloxifene] | 4 | 0 | 0 | 2.5 | 0 | 0 |
| Cc1nc(=O)c2cc(CN(C)c3ccc(C(=O)N[C@@H](CCC(=O)O)C(=O)O)s3)ccc2[nH]1 [Raltitrexed] | 11.2 | 16.8 | 10.4 | 16.4 | 18.3 | 15.9 |
| Cn1nccc1Nc1nccc(-c2ccn([C@H](CO)c3ccc(Cl)c(F)c3)c(=O)c2)n1 [Ravoxertinib] | 3.6 | 3.2 | 3.3 | 2.2 | 4.3 | 4.9 |
| CNC(=O)c1cc(Oc2ccc(NC(=O)Nc3ccc(Cl)c(C(F)(F)F)c3)c(F)c2)ccn1 [Regorafenib] | 5.5 | 3.6 | 3.2 | 5.4 | 3.3 | 5.5 |
| CCOC(=O)C1=CCCC[C@H]1S(=O)(=O)Nc1ccc(F)cc1Cl [Resatorvid] | 0 | 0.2 | 0 | 0 | 0 | 0 |
| CCOCc1nc2c(N)nc3ccccc3c2n1CC(C)(C)O [Resiquimod] | 0 | 0 | 6.7 | 0.3 | 0 | 0 |
| CN(C)Cc1ccc(S(=O)(=O)n2ccc(/C=C/C(=O)NO)c2)cc1 [Resminostat] | 11 | 10 | 10.4 | 18.3 | 12.8 | 15 |
| CN(C)C(=O)c1cc2cnc(Nc3ccc(N4CCNCC4)cn3)nc2n1C1CCCC1 [Ribociclib] | 0 | 3.9 | 5.2 | 3.9 | 0 | 0 |
| CO[C@H]1C[C@@H]2CC[C@@H](C)[C@@](O)(O2)C(=O)C(=O)N2CCCC[C@H]2C(=O)O[C@H]([C@H](C)C[C@@H]2CC[C@@H](OP(C)(C)=O)[C@H](OC)C2)CC(=O)[C@H](C)/C=C(\C)[C@@H](O)[C@@H](OC)C(=O)[C@H](C)C[C@H](C)/C=C/C=C/C=C/1C [Ridaforolimus] | 11.6 | 13.4 | 8.1 | 7.1 | 0 | 9.8 |
| COc1cc(OC)c(/C=C/S(=O)(=O)Cc2ccc(OC)c(NCC(=O)O)c2)c(OC)c1 [Rigosertib] | 24 | 24.1 | 28.8 | 27.7 | 28.9 | 30.4 |
| C[C@H]1CNCCCN1S(=O)(=O)c1cccc2cncc(F)c12 [Ripasudil] | 1.8 | 0 | 0.4 | 3 | 6.9 | 0.2 |
| C=CC(=O)Nc1cccc(Nc2nc(Nc3ccc(N4CCN(C(C)=O)CC4)cc3OC)ncc2C(F)(F)F)c1 [Rociletinib] | 5.8 | 4.6 | 3.7 | 6.7 | 4.1 | 8.1 |
| O=C(CCCCCCNC(=O)c1cnc(N(c2ccccc2)c2ccccc2)nc1)NO [Rocilinostat] | 6.7 | 6.9 | 7.1 | 10.4 | 5.2 | 18.6 |
| C/C=C1\NC(=O)[C@H]2CSSCC/C=C/[C@H](CC(=O)N[C@H](C(C)C)C(=O)N2)OC(=O)[C@H](C(C)C)NC1=O [Romidepsin] | 28 | 30 | 32.7 | 29.2 | 26.5 | 30.4 |
| Cc1nc(C(=O)NCC(=O)O)c(O)c2ccc(Oc3ccccc3)cc12 [Roxadustat] | 3 | 0 | 0 | 0 | 0 | 0 |
| CN(C)C[C@@H]1CCn2cc(c3ccccc32)C2=C(C(=O)NC2=O)c2cn(c3ccccc23)CCO1 [Ruboxistaurin] | 8.7 | 6.5 | 14.9 | 5.5 | 3.8 | 6.9 |
| CNCc1ccc(-c2[nH]c3cc(F)cc4c3c2CCNC4=O)cc1 [Rucaparib] | 3.7 | 5.3 | 14.1 | 8.5 | 3.5 | 6.5 |
| N#CC[C@H](C1CCCC1)n1cc(-c2ncnc3[nH]ccc23)cn1 [Ruxolitinib] | 0 | 0 | 0 | 1.3 | 2.7 | 2.5 |
| CC(C)N(CCCNC(=O)Nc1ccc(C(C)(C)C)cc1)C[C@H]1O[C@@H](n2cc(Br)c3c(N)ncnc32)[C@H](O)[C@@H]1O [SGC0946] | 0.1 | 3.3 | 0 | 0 | 0 | 0 |
| COc1ccc(CCc2nc3cc(-c4c(C)noc4C)ccc3n2C[C@H](C)N2CCOCC2)cc1Cl [SGC-CBP30] | 5.7 | 1.3 | 3.2 | 9.9 | 1.7 | 4.5 |
| CN1CCC(CNc2ccc3ncc(-c4cccc(OC(F)(F)F)c4)n3n2)CC1 [SGI-1776] | 7.9 | 6.1 | 7.6 | 8.5 | 4.5 | 5.2 |
| CN(CC(=O)N(Cc1ccc(C2CCCCC2)cc1)c1ccc(C(=O)O)cc1)S(=O)(=O)c1c(F)c(F)c(F)c(F)c1F [SH-4-54] | 8.5 | 7.8 | 12 | 0 | 6 | 7.3 |
| CCc1c2c(nc3ccc(O)cc13)-c1cc3c(c(=O)n1C2)COC(=O)[C@]3(O)CC [SN-38] | 31.7 | 39.5 | 41 | 40.9 | 40.9 | 45 |
| CC(C)(C)c1cnc(CSc2cnc(NC(=O)C3CCNCC3)s2)o1 [SNS-032] | 21.1 | 18.1 | 25.5 | 28.3 | 21 | 24.3 |
| Cc1cc2c(C(=O)NC[C@H](C)c3ccccc3)c(O)c(O)cc2c(O)c1-c1c(C)cc2c(C(=O)NC[C@H](C)c3ccccc3)c(O)c(O)cc2c1O [Sabutoclax] | 3 | 4.3 | 23.7 | 16.2 | 14.2 | 26.7 |

| SMILES | drug sensitivity score (KURAMOCHI; [1]) [DSS] | drug sensitivity score (KURAMOCHI; co-cultured fibroblast: WI38) [DSS] | drug sensitivity score (KURAMOCHI; [2]) [DSS] | drug sensitivity score (OVCAR8; [1]) [DSS] | drug sensitivity score (OVCAR8; co-cultured fibroblast: WI38) [DSS] | drug sensitivity score (OVCAR8; [2]) [DSS] |
| --- | --- | --- | --- | --- | --- | --- |
| CC[C@@H](C(=O)[C@@H](C)[C@@H](O)[C@H](C)[C@@H]1O[C@@H]([C@@H](CC)C(=O)O)CC[C@@H]1C)[C@H]1O[C@]2(C=C[C@@H](O)[C@]3(CC[C@@](C)([C@H]4CC[C@](O)(CC)[C@H](C)O4)O3)O2)[C@H](C)C[C@@H]1C [Salinomycin] | 23.1 | 23.6 | 28.5 | 22.1 | 12.2 | 21.1 |
| CC(C)n1nc(-c2ccc3oc(N)nc3c2)c2c(N)ncnc21 [Sapanisertib] | 13.5 | 12.4 | 15.1 | 11 | 7.9 | 11.8 |
| CNC(=O)CN1CCC(Oc2cc3c(Nc4cccc(Cl)c4F)ncnc3cc2OC)CC1 [Sapitinib] | 2.3 | 0 | 0 | 1.7 | 1 | 1.7 |
| CN1CCN(CCOc2cc(OC3CCOCC3)c3c(Nc4c(Cl)ccc5c4OCO5)ncnc3c2)CC1 [Saracatinib] | 10.4 | 9.6 | 9.9 | 9.2 | 13.3 | 14.6 |
| CC1=C2C[C@H]3[C@@H](CC[C@@H]4C[C@H](NS(C)(=O)=O)CC[C@@]43C)[C@@H]2CC[C@@]2(C1)O[C@@H]1C[C@H](C)CN[C@H]1[C@H]2C [Saridegib] | 3.1 | 3.9 | 4.2 | 0 | 0 | 0 |
| O=C(/C=C\n1cnc(-c2cc(C(F)(F)F)cc(C(F)(F)F)c2)n1)NNc1cnccn1 [Selinexor] | 17.1 | 21.8 | 25.3 | 22.4 | 24.3 | 27.1 |
| Cc1cc(F)c(C(=O)Nc2cccc(-c3nncn3C(C)C)n2)cc1-n1cnc(C2CC2)c1 [Selonsertib] | 0 | 0 | 0 | 0 | 0 | 0 |
| Cn1cnc2c(F)c(Nc3ccc(Br)cc3Cl)c(C(=O)NOCCO)cc21 [Selumetinib] | 15.5 | 6.4 | 20.1 | 6.1 | 0 | 7.8 |
| CN1CCN(C(=O)c2ccc3cc(CCNc4ncnc5ccc(C#N)cc45)ccc3c2)CC1 [Senexin B] | 1.1 | 1.6 | 1 | 1.1 | 0 | 0.1 |
| COCC[n+]1c2c(n(Cc3cnccn3)c1C)C(=O)c1ccccc1C2=O [Sepantronium bromide] | 40.7 | 30 | 30.5 | 37.1 | 35.5 | 29.9 |
| Nc1nc2cc(-c3ccc4ncc(C(=O)N5CCOCC5)n4c3)ccc2o1 [Serabelisib] | 3.3 | 0.4 | 3.1 | 0.8 | 0 | 0 |
| O=C(O)c1ccc2c(c1)nc(Nc1cccc(Cl)c1)c1ccncc12 [Silmitasertib] | 4.1 | 3.4 | 0.8 | 2 | 0 | 3 |
| CCC(C)(C)C(=O)O[C@H]1C[C@@H](C)C=C2C=C[C@H](C)[C@H](CC[C@@H]3C[C@@H](O)CC(=O)O3)[C@H]21 [Simvastatin] | 0.4 | 0 | 8.6 | 1.8 | 14.6 | 3.6 |
| CO[C@H]1C[C@@H]2CC[C@@H](C)[C@@](O)(O2)C(=O)C(=O)N2CCCC[C@H]2C(=O)O[C@H]([C@H](C)C[C@@H]2CC[C@@H](O)[C@H](OC)C2)CC(=O)[C@H](C)/C=C(\C)[C@@H](O)[C@@H](OC)C(=O)[C@H](C)C[C@H](C)/C=C/C=C/C=C/1C [Sirolimus] | 4.2 | 5 | 7.1 | 4.5 | 0 | 9.2 |
| COCCNCc1ccc(-c2cc3nccc(Oc4ccc(NC(=O)C5(C(=O)Nc6ccc(F)cc6)CC5)cc4F)c3s2)nc1 [Sitravatinib] | 3.1 | 5.8 | 0 | 0 | 1.6 | 1.8 |
| Cc1c(C(=O)Nc2ccc(N3C[C@@H](C)O[C@@H](C)C3)nc2)cccc1-c1ccc(OC(F)(F)F)cc1 [Sonidegib] | 0 | 0 | 0 | 0.6 | 0 | 0.6 |
| C=CCN(/C=C1/C(=O)O[C@H](COC)[C@@]2(C)C1=C(O)C(=O)C1=C2[C@H](OC(C)=O)C[C@]2(C)C(=O)CC[C@@H]12)CC=C [Sonolisib] | 0 | 1.5 | 0 | 0 | 0 | 0 |
| CNC(=O)c1cc(Oc2ccc(NC(=O)Nc3ccc(Cl)c(C(F)(F)F)c3)cc2)ccn1 [Sorafenib] | 0 | 0 | 0 | 0 | 0 | 0 |
| CN1CCN(c2nc(C3=C(c4c[nH]c5ccccc45)C(=O)NC3=O)c3ccccc3n2)CC1 [Sotrastaurin] | 1.1 | 0.6 | 12 | 0.2 | 2.6 | 0 |
| C=CC(=O)Nc1cccc(Nc2nc(Nc3ccc(OCCOC)cc3)ncc2F)c1 [Spebrutinib] | 0 | 0 | 0 | 0 | 0 | 0 |
| CC(C)n1cnc2c(NCCc3ccc(O)cc3)nc(-c3csc4ccccc34)nc21 [StemRegenin 1] | 4.3 | 2.8 | 1.7 | 2.8 | 0 | 1 |
| CCN(CC)CCNC(=O)c1c(C)[nH]c(/C=C2\C(=O)Nc3ccc(F)cc32)c1C [Sunitinib] | 0 | 0 | 3.2 | 0.7 | 0 | 0 |
| CC(C)(O)CC(=O)NCCn1ccc2ncnc(Nc3ccc(Oc4cccc(C(F)(F)F)c4)c(Cl)c3)c21 [TAK-285] | 5.2 | 1.6 | 0.6 | 0.2 | 0 | 1.2 |
| CCS(=O)(=O)c1cccc(-c2cc(C(=O)NC3CCN(C)CC3)c(C)c3[nH]c4ncc(C)cc4c23)c1 [TAK-901] | 11.8 | 15 | 13.7 | 9.4 | 8.3 | 7.1 |
